Data as given in US20220389437A1, “METHODS OF IN PLANTA TRAN[…] AXILLARY MERISTEM” (SYNGENTA CROP PROTECTION AG, priority 2019, published 2022).

Tested on: non-transgenic plants (soybean seedlings), wounded axillary areas
Assay: Glyphosate top selection dose finding: suppression of axillary meristem regeneration
Assay type: in vivo
Conditions: 10, 25, 50, 75, 100 or 200 uM applied on the wounded axillary areas, non-lethal but sufficient to suppress regeneration within 2 weeks
Text: 1) Germination: Soybean seeds were sown in 2.5 inch pots, two seeds in each pot. 4-7 day old seedlings grown from the seeds were used for cotyledon axillary meristem transformation.
2) Wound axillary meristems: The axillary meristems located in the axil of cotyledons were completely removed. The stem cells located in the base of the axillary meristem were transformed using Agrobacterium as described below. To break the dormancy of the axillary meristem, the primary shoot meristem was removed at the same time, or 3-7 days' later.
5) Selection: To determine the glyphosate concentrations effectively suppressing axillary meristem regeneration in top selection, non-transgenic plants were used and 10 uM to 200 uM glyphosate (specifically 10, 25, 50, 75, 100, or 200 uM glyphosate) was applied on the wounded axillary areas.

O=C(O)CNCP(=O)(O)O [glyphosate]
glyphosate concentrations effectively suppressing axillary meristem regeneration in top selection: 75 to 200 µM
